In PubChem BioAssay AID1996:
≈ marks a conversion by molar mass, not a printed value.

Details: buffer; pH 7.4; 200.0 µM

solubility kinetic [µg/mL] | SMILES
44.5 (≈ 140 µM) | CC(NC(=O)CCSCc1ccccc1F)c1ccccc1 (stereo not given)
24.6 (≈ 71.2 µM) | COc1cc(/C=C/C(=O)OCC(=O)Nc2cccc(F)c2)ccc1O
39.2 (≈ 123 µM) | Cc1ccc(NS(=O)(=O)c2cccc3nsnc23)cc1C
3.4 (≈ 11 µM) | CC(=O)Oc1ccc(C(=O)Nc2cccc3c2CCCC3)cc1
> 31.2 | c1ccc(Cc2nc3ccccc3[nH]2)cc1
> 50.9 | CC/C(O)=C1\C(=O)CC(C)(C)CC1=NCCc1nc2ccccc2[nH]1
2.3 (≈ 7.51 µM) | Cc1ccc(-c2onc3ccc(C(=O)/C=C/N(C)C)cc23)cc1
12.1 (≈ 37.3 µM) | Cc1ccccc1CN(C)CC(=O)Nc1c(C)cccc1C(C)C
4.6 (≈ 14.3 µM) | Cc1ccc(NC(=O)CCN2C(=O)c3ccccc3C2=O)cc1C
> 34.7 | COc1ccccc1C(=O)NCc1ccco1
51.1 (≈ 136 µM) | Cc1ccccc1CN1C(=O)c2ccccc2Sc2ccc(C(=O)O)cc21
> 49.8 | CCCCC(=O)Nc1cccc(NC(=O)c2cccnc2Cl)c1
0.9 (≈ 2.97 µM) | CC(NC(=O)NC(=O)c1cccc(Cl)c1)c1ccccc1 (stereo not given)
1 (≈ 3.73 µM) | Cc1c([N+](=O)[O-])c2ccc(O)cc2n1-c1ccccc1
> 45.7 | C/C(=N\NC(=O)c1cc(C)nc2ccccc12)c1ccccn1
1.1 (≈ 3.5 µM) | N=c1oc2cc(O)ccc2cc1C(=O)Nc1ccc(Cl)cc1
0.7 (≈ 2.07 µM) | CCOc1ccc(OCCCCn2cnc3ccccc3c2=O)cc1
< 0.3 | Cc1ccc(C(=O)Nc2ccccc2C(=O)Nc2ccccn2)cc1Cl
2.3 (≈ 7.16 µM) | O=C(COC(=O)c1ccc2ccccc2c1O)Nc1ccccc1
34.6 (≈ 123 µM) | Cc1cccc(OCC(=O)N2CCc3ccccc3C2)c1
> 47 | COc1cc(CO)ccc1OCC(=O)N1CCc2ccccc21
> 45.3 | O=C(NS(=O)(=O)c1ccc(Cl)s1)c1ccccc1
3.4 (≈ 11.5 µM) | O=C(NCc1ccc(Cl)cc1)c1ccc2ccccc2n1
28.2 (≈ 99.5 µM) | Cc1cc(NC(=O)C(=O)c2c(C)[nH]c3ccccc23)no1
6.1 (≈ 19.1 µM) | O=C(Cc1ccccc1)c1c[nH]c(C(=O)NCc2ccncc2)c1

solubility kinetic [µg/mL] | SMILES
6.1 (≈ 21.1 µM) | N#Cc1ccc(COC(=O)c2cnc3ccccc3n2)cc1
> 42.8 | COc1ccccc1CNC(=O)C(C)Oc1ccccc1 (stereo not given)
28.4 (≈ 103 µM) | O=S(=O)(c1ccc(F)cc1)n1cnc2ccccc21
53.4 (≈ 142 µM) | O=C(OCC(=O)N1CCOCC1)c1cc(-c2ccccc2)nc2ccccc12
4.8 (≈ 14.5 µM) | O=C(Cc1c(F)cccc1Cl)NCCc1c[nH]c2ccccc12
0.4 (≈ 1.13 µM) | COc1cc(NC(=O)Nc2cccc3cccnc23)cc(OC)c1OC
< 0.4 | COC(=O)c1cc(Nc2cc(C)c3ccc(O)cc3n2)cc(C(=O)OC)c1
2.6 (≈ 9.14 µM) | CNC(=O)COC(=O)c1ccccc1Nc1ccccc1
2.1 (≈ 6.15 µM) | NS(=O)(=O)c1ccc(NC(=O)Nc2cccc3ccccc23)cc1
12.2 (≈ 42.7 µM) | O=C1Cc2ccccc2C(=O)N1Cc1cccc(Cl)c1
31.1 (≈ 80.1 µM) | Cc1ccc(C)c(NC(=O)CN(C)C(=O)c2cccc(Oc3ccccc3)c2)c1
< 0.4 | COC(OC)c1ccnc(-c2ccc(OC(=O)c3ccccc3)cc2)n1
< 0.6 | CCCCNC(=O)C1c2ccccc2Oc2ccccc21
40.2 (≈ 129 µM) | CCN(Cc1nc(-c2ccccc2)no1)C(=O)c1ccoc1C
20.2 (≈ 67 µM) | COc1ccc(CNc2ncnc3sccc23)cc1OC
11.1 (≈ 29.7 µM) | COc1cccc(OC)c1C(=O)Nc1cccc(-c2nc3ccccc3[nH]2)c1
> 48.1 | S=C(Nc1ccc2c(c1)OCCO2)Nc1ccccc1Cl
13.9 (≈ 45.6 µM) | S=C(NCCc1ccccc1)NCc1cccc(Cl)c1
33.7 (≈ 122 µM) | CC(NC(=O)c1cnc2ccccc2n1)c1ccccc1 (stereo not given)
3.1 (≈ 9.89 µM) | COc1ccccc1C(=O)OCc1ccc2sc(C)nc2c1
24 (≈ 89.4 µM) | COc1ccccc1C1N=C(c2ccccc2C)NO1 (stereo not given)
10.4 (≈ 31.9 µM) | COc1ccc(OC)c(-c2c3c([nH]c(=S)c2C#N)CCCC3)c1
7.5 (≈ 17.9 µM) | Cc1ccc(NC(=O)Cc2nc(COC(=O)c3c(F)cccc3Cl)cs2)cc1
1.6 (≈ 4.67 µM) | CC(=O)C1C(=O)c2c(cccc2[N+](=O)[O-])C1=Nc1cccc(Cl)c1 (stereo not given)
> 50.5 | CN(C)C(CNC(=O)c1coc2ccccc2c1=O)c1ccccc1 (stereo not given)

The remaining lines, values behind:

SMILES | solubility kinetic [µg/mL]
CC(=O)CC1=NC(C)(C)Cc2ccccc21 | 17.2 (≈ 79.9 µM)
O=C(c1ccccc1)c1ccc(OCC(O)CN2CCCC2)cc1 (stereo not given) | > 48.8
CC(=O)N1CCN(C(=S)NC(=O)c2ccc(F)cc2)CC1 | > 46.4
O=C(Nc1ccc2c(c1)CCC2)Nc1ccc(F)cc1F | < 0.3
COCCCNC(=S)N1CCN(C)CC1 | > 34.7
O=C(CN1CCCC1)Nc1ccccc1C(=O)c1ccccc1 | 44 (≈ 143 µM)
N#Cc1ccc(N2CCOCC2)nc1 | > 28.4
O=C(CNC(=O)c1ccc2c(c1)OCO2)Nc1ncccc1O | > 47.3
CSCC[C@H](NC(=O)Nc1ccccc1C)C(=O)O | > 42.4
NS(=O)(=O)c1cc2c(cc1C(F)(F)F)NCNS2(=O)=O | > 49.7
CCCCCCCN=C(C)c1ccccc1O | 13.9 (≈ 59.6 µM)
O=c1[nH]n2cc(-n3cc([N+](=O)[O-])cn3)cnc2c1Br | > 48.8
CC(C)c1ccc(N2C=Nc3ccc(C(C)C)cc3C2)cc1 | 2.8 (≈ 9.58 µM)
CCOC(=O)C1CCN(CCC(=O)Nc2ccc(C)cc2)CC1 | > 47.8
CN1CCN(C(=O)c2ccc(CNS(=O)(=O)c3ccc(F)c(Cl)c3)cc2)CC1 | 59.4 (≈ 139 µM)
O=C(NC1CC2CCCC(C1)N2C(=O)Nc1cccc(F)c1)C1CC1 (stereo not given) | 16.3 (≈ 47.2 µM)
Cc1ccc(NC(=O)c2ccc(S(=O)(=O)N3CCOCC3)cc2)c(C)c1 | 5.2 (≈ 13.9 µM)
N#Cc1c(C(F)(F)F)cc(-c2ccc(F)cc2)nc1SCC(=O)O | 51.2 (≈ 144 µM)
NC(=O)COC(=O)c1sc2cc(F)ccc2c1Cl | 6.3 (≈ 21.9 µM)
Cc1ccc(S(=O)(=O)Nc2ccc(F)c(S(=O)(=O)N3CCOCC3)c2)cc1 | > 62.2
O=C(NCc1cccnc1)NC1CC(=O)N(c2ccc3c(c2)OCCO3)C1 (stereo not given) | > 55.3
CC1(C)CC(=O)C=C(Nc2ccccc2C#N)C1.Cl | 38.2
CCOc1ccc(N2CC(C(=O)NCc3ccccn3)CC2=O)cc1 (stereo not given) | 37.5 (≈ 110 µM)
O=[N+]([O-])c1cc(CS(=O)(=O)Oc2ccc(Cl)cc2)c(O)c([N+](=O)[O-])c1 | > 58.3

SMILES | solubility kinetic [µg/mL]
COc1ccc(/C=C/C(=O)NCCN2CCOCC2)cc1OC | > 48.1
C=CCn1c(=O)c2ccccc2n2c(SCC(=O)NC(C)C)nnc12 | > 53.6
CC(OC(=O)c1ccc(Cl)cc1)C(=O)NCC1CCCCC1 (stereo not given) | 13.8 (≈ 42.6 µM)
CCOC(=O)Cc1csc(NC(=O)CCc2ccccc2)n1 | 41 (≈ 129 µM)
CC(C)(C)N1CC(C(=O)O)CC1=O (stereo not given) | > 27.8
CC1CCCC(C)N1/N=C/c1ccc(C#N)cc1 (stereo not given) | > 36.2
Cc1ccccc1C(=O)N[C@H](C(=O)OCC(=O)NC1CC1)C(C)C | > 49.9
O=Cc1cccnc1SCc1ccccc1 | 15.5 (≈ 67.6 µM)
CCOC(=O)C1=NNC2(CC(=O)N(c3cccc(C)c3)C2=O)C1 (stereo not given) | > 47.3
CSc1nc2c(c(=O)[nH]c(=O)n2C)n1Cc1ccccc1 | > 45.4
NS(=O)(=O)c1ccc(F)c(C(=O)O)c1 | > 32.9
O=C(Cn1cc(C(F)(F)F)ccc1=O)N1CCc2ccccc21 | 25.2 (≈ 78.2 µM)
COc1ccc(NC(=O)CN(C)C(=O)C2=COCCO2)cc1 | > 45.9
CCCc1cc(C(=O)Nc2cccc(Cl)c2C)no1 | 16.4 (≈ 58.8 µM)
CCOc1ccc(NC2=CC(=O)CCC2)cc1 | 29.5 (≈ 128 µM)
O=C(COc1ccc2ccccc2c1Br)N1CCCC1 | 45.4 (≈ 136 µM)
CC1CCN(CC(=O)Nc2nc(-c3ccccc3)cs2)CC1 | 12.9 (≈ 40.9 µM)
CC(=O)C1C(c2ccc(F)cc2)c2c(noc2C)CC1(C)O (stereo not given) | > 45.5
Cc1ccc(S(=O)(=O)N(C)C)cc1NC(=O)CN1CCCC1 | > 48.8
Cc1ccc(SC(C)C(=O)NC2CC2)cc1 (stereo not given) | > 35.3
COC(=O)C(Cc1ccc(O)cc1)NC(=O)CCNC(=O)c1ccco1 (stereo not given) | > 54.1
CCCNc1nc(Cl)nc(Nc2ccc(Cl)cc2)n1 | 1.1 (≈ 3.69 µM)
Cc1cc(OCCCN2CCCC2)ccc1Cl | 26.8 (≈ 106 µM)
CC1CC(C)(C)NC(=S)N1CCCC(=O)Nc1ccccc1F (stereo not given) | > 50.6

SMILES | solubility kinetic [µg/mL]
CCOc1cccc(CNCc2ccncc2)c1 | 27.4 (≈ 113 µM)
COc1ccc(C(=O)N[C@H](C(=O)NC2CCCCC2)C(C)C)cc1 | 5.1 (≈ 15.3 µM)
COc1cccc(CN2C(=O)NC3(CCCCCC3)C2=O)c1 | > 45.4
O=C(NCCOc1ccccc1)C(=O)NCC1CCCO1 (stereo not given) | > 43.9
CN(C)/C=C/c1[nH]c(=O)[nH]c(=O)c1[N+](=O)[O-] | > 33.9
CCCSC1=C(C#N)C(c2cccs2)CC(=O)N1 (stereo not given) | 33.7 (≈ 121 µM)
Cc1ccc(N2C(=O)CC(C)CC2=O)cc1 | > 32.6
O=C(Nc1cccc([N+](=O)[O-])c1)NC1CCCCCCC1 | 3.8 (≈ 13 µM)
CC(C)CCCC(C)CCOC(=O)CN1CCCC1 (stereo not given) | 1.9 (≈ 7.05 µM)
Cc1ccc(C2NCCS2)cc1 (stereo not given) | > 26.9
CCN1C(=O)N(CC)c2cccc3cccc1c23 | 1.6 (≈ 6.66 µM)
Cc1ccnc(SCC(=O)Nc2sccc2C#N)n1 | 13.2 (≈ 45.5 µM)
CCOC(=O)C(NC(=O)C1C(C)N1S(=O)(=O)c1ccc(C)cc1)C(=O)OCC (stereo not given) | > 61.9
NC(=O)C1CCN(C(=O)c2ccc(Cl)c(S(=O)(=O)N3CCCCCC3)c2)CC1 | > 64.2
CN(CCC#N)C(=O)COc1ccc(Br)cc1Cl | > 49.7
C=CCNC(=S)NC(CC(=O)OC)c1ccc2c(c1)OCO2 (stereo not given) | 30.3 (≈ 94 µM)
CCOC(=O)CCNC(=O)N1CCCC(C(=O)c2ccccc2SC)C1 (stereo not given) | > 56.8
Cc1ccc(NC(=S)N2CC(C)OC(C)C2)cc1C (stereo not given) | > 41.8
CCc1cc2c(=O)oc(-c3ccccc3F)nc2s1 | 0.7 (≈ 2.54 µM)
Cc1[nH]c2ccccc2c1C(=O)CN1C(=O)C(=O)N(C2CCCC2)C1=O | 3.2 (≈ 9.06 µM)
CCOC(=O)[C@H](CCc1ccccc1)N[C@@H](C)C(=O)N1Cc2ccccc2C[C@H]1C(=O)O.Cl | > 71.2
COc1ccc(C(=O)N2CCN(c3ccc(C(C)=O)cc3)CC2)cc1S(=O)(=O)N1CCCC1 | > 70.7
